In patent publication US20050064021A1, “Medical dressings” (priority 2001, published 2005):

System: cells
Assay: cellular adherence to alginate, cell type not stated
Assay type: cell-based
Conditions: lidocaine present with poloxamer

How did the “cellular adherence properties of alginate” value turn out when `CCN(CC)CC(=O)Nc1c(C)cccc1C` [lidocaine] was run?
The value was “reduce the cellular adherence properties of alginate, for example, still further”.
